From PubChem BioAssay (NCI)
Several values for one entry are separate records, joined by “and”; a condition that tells them apart may be missing. Equal values may be shown once.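 Assay format: 96-well plates, 48-hour exposure. Here, GI50 denotes the concentration required for 50% inhibition of growth. The concentration for full growth arrest is given as TGI.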

How the values were obtained:
Assay in all cases: growth of human tumour cells (NCI), 48 h
HOP-92 NSCLC = test system: HOP-92 NSCLC
IGROV1 ovarian = test system: IGROV1 ovarian
MCF7 breast = test system: MCF7 breast
NCI-H23 lung = test system: NCI-H23 lung
OVCAR-4 ovarian = test system: OVCAR-4 ovarian
OVCAR-5 ovarian = test system: OVCAR-5 ovarian
OVCAR-8 ovarian = test system: OVCAR-8 ovarian
PC-3 prostate = test system: PC-3 prostate
SF-268 CNS = test system: SF-268 CNS
UACC-62 melanoma = test system: UACC-62 melanoma

SMILES | GI50 (HOP-92 NSCLC) | TGI (HOP-92 NSCLC) | GI50 (IGROV1 ovarian) | TGI (IGROV1 ovarian) | GI50 (MCF7 breast) | TGI (MCF7 breast) | GI50 (NCI-H23 lung) | TGI (NCI-H23 lung) | GI50 (OVCAR-4 ovarian) | TGI (OVCAR-4 ovarian) | GI50 (OVCAR-5 ovarian) | TGI (OVCAR-5 ovarian) | GI50 (OVCAR-8 ovarian) | TGI (OVCAR-8 ovarian) | GI50 (PC-3 prostate) | TGI (PC-3 prostate) | GI50 (SF-268 CNS) | TGI (SF-268 CNS) | GI50 (UACC-62 melanoma) | TGI (UACC-62 melanoma)
COc1ccc(/C=C(\C#N)n2nnc3c(F)cccc32)cc1 | 0.293 µM | 42.9 µM | 0.388 µM | > 36.9 µM | 0.715 µM | > 100 µM | 0.508 µM | 12.5 µM | > 28.2 µM | > 100 µM | 0.84 µM | 14 µM | 0.532 µM | > 34.5 µM | 0.381 µM | > 100 µM | 1.68 µM | > 100 µM | 0.303 µM | 15 µM
COc1cc2nc(-c3cc(F)ccc3O)nc(N[C@@H]3CNC[C@H]3C(C)(C)O)c2cc1OC | 0.465 µM | 1.9 µM | 1.47 µM | 3.43 µM | 1.51 µM | 3.07 µM | 1.67 µM | 3.42 µM | 1.88 µM | 4.65 µM | 1.5 µM | 3.67 µM | 1.63 µM | 3.07 µM | 2.09 µM | 5.7 µM | 1.32 µM | 2.75 µM | 1.78 µM | 3.41 µM
Cn1cc(C2=C(c3cccc(OC[C@@H](O)CO)c3)C(=O)NC2=O)c2ccccc21 | > 25 µM | > 25 µM | > 25 µM | > 25 µM | 2.07 µM | > 25 µM | > 25 µM | > 25 µM | > 16.4 µM | > 25 µM | > 25 µM | > 25 µM | > 25 µM | > 25 µM | > 25 µM | > 25 µM | > 25 µM | > 25 µM | > 25 µM | > 25 µM
Cc1cc[n+]2c(c1)-c1cc(C)cc[n+]1CC2 |  | > 100 µM |  | > 100 µM |  | > 100 µM |  | > 100 µM |  | > 100 µM |  | > 100 µM |  | > 100 µM |  | > 100 µM |  | > 100 µM |  | > 100 µM
C[C@]12CC[C@@H]3c4cc(OC(F)F)c(OS(N)(=O)=O)cc4CC[C@H]3[C@@H]1CC[C@@H]2O | 1.64 µM | 28.6 µM | 0.646 µM | 24.9 µM | 0.39 µM | 20.8 µM | 0.621 µM | 20.1 µM | 7.8 µM | 83.9 µM | 1.77 µM | > 62.8 µM | 0.848 µM | 60.7 µM | 0.537 µM | 47.8 µM | 1.49 µM | 60.3 µM | 0.299 µM | 16.7 µM
Oc1cccc2ccc(N/N=C/c3cc(CN4CCOCC4)c(O)c4ncccc34)nc12 | 0.0212 µM | 0.0678 µM | 0.066 µM | 4.94 µM | 0.021 µM | 1.54 µM | 0.0327 µM | 1.73 µM | 0.0339 µM | 2.14 µM | 0.135 µM | 15.4 µM | 0.0207 µM | 2.09 µM | 0.0346 µM | 4.92 µM | 0.0372 µM | 13.4 µM | 0.0339 µM | 0.55 µM
COc1ccc(-c2nc(/C=C3\SC(=NCc4ccccc4)NC3=O)c3ccccn23)cc1 | 0.853 µM | 3.42 µM | 1.47 µM | 4.22 µM | 1.55 µM | 3.39 µM | 1.37 µM | 3.51 µM | 1.39 µM | 2.84 µM | 1.5 µM | 2.45 µM | 2.04 µM | 8.13 µM | 1.28 µM | 4.35 µM | 0.377 µM | 1.57 µM | 1.55 µM | 3.8 µM
Cc1cc(C)nc(SC2=C(Nc3cc(Cl)ccc3O)C(=O)N(Cc3ccccc3)C2=O)n1 | 21.9 µM | 68.5 µM | 25.3 µM | 88.6 µM | 20.5 µM | 109 µM | 113 µM | > 160 µM | 34 µM | > 160 µM | > 160 µM | > 160 µM | 27 µM | 110 µM | 19.9 µM | 86.4 µM | 61.2 µM | > 160 µM | 16.2 µM | 41.8 µM
NS(=O)(=O)c1ccc(-c2cc3ccncc3cc2OCc2ccccc2)cc1 | 4.94 µM | > 25 µM | > 25 µM | > 25 µM | 14.5 µM | > 25 µM | > 25 µM | > 25 µM | > 19.6 µM | > 25 µM | > 25 µM | > 25 µM | 8.19 µM | > 25 µM | > 20.5 µM | > 25 µM | > 20.1 µM | > 25 µM | > 23.7 µM | > 25 µM
CC1(C)CC(=O)C2=C(C1)OC(N)=C(c1nc(-c3ccccc3)cs1)C2c1ccc(Br)cc1 (stereo not drawn) | 33.2 µg/mL | 126 µg/mL | 90.9 µg/mL | > 150 µg/mL | 18.2 µg/mL | 101 µg/mL | 53.7 µg/mL | > 150 µg/mL | 20.9 µg/mL | 121 µg/mL | > 150 µg/mL | > 150 µg/mL | 116 µg/mL | > 150 µg/mL | 50.9 µg/mL | > 150 µg/mL | 121 µg/mL | > 150 µg/mL | 30.5 µg/mL | > 150 µg/mL
COC1C(N)C(OC2C(Oc3cccc4c(O)c5c(=O)oc6ccc(C)c7c(=O)oc(c34)c5c67)OC(C)C(O)C2(C)O)OC(C)C1O (stereo not drawn) |  | 0.0653 µM |  | 0.132 µM |  | 1.31 µM |  | 0.249 µM |  | 2.28 µM |  | 1.45 µM |  | 0.212 µM |  | 1.18 µM |  | 0.104 µM |  | 0.147 µM
CCc1cccc(C)c1NC(=O)c1sc2nc3c(cc2c1N)C(=O)CCC3 | 0.644 µM | 74.7 µM | 4.75 µM | > 100 µM | 0.396 µM | > 91.4 µM | 0.732 µM | > 100 µM | 0.78 µM | > 100 µM | 2.74 µM | > 100 µM | 2.21 µM | > 91.7 µM | 0.454 µM | > 100 µM | 3.06 µM | > 100 µM | 0.556 µM | > 100 µM
Cc1cc(N=Nc2ccccc2C)ccc1N | 7.41 µM | 25.1 µM and 26.8 µM | 5.1 µM | 48.3 µM and 20 µM | 16.5 µM | 36.2 µM and 43.6 µM | 16.5 µM | 14.7 µM and 42.3 µM |  | 62.3 µM | 15 µM | 41.3 µM and 37.6 µM | 20.7 µM | 34.6 µM and 96.4 µM | 5.99 µM | 26.8 µM and 91.5 µM | 4.36 µM | 33.6 µM |  | 25.1 µM and 30.6 µM
